Earlier results as cited in US7977452B2, “Janus dendrimers and dendrons” (Dendritic Nanotechnologies, Inc., priority 2005, dated 2011).

What was measured:
Mouse [1] = test system: Mouse
Mouse [2] = test system: Mouse; remark: listed apart in the source
[3] = in vivo
[4] = Gd-chelate PAMAM dendrimer contrast agent

SMILES	LD50 (Mouse [1]) [mmol·kg]	Effective dose (ED) (Mouse [2]) [mmol·kg]	Excretion [3]	Size [4] [nm]
O=C([O-])CN1CCNCCN(CC(=O)[O-])CCN(CC(=O)[O-])CC1.[Gd+3] [Gd(III)-DO3A]	7	0.1	–	–
CC(O)CN1CCN(CC(=O)[O-])CCN(CC(=O)[O-])CCN(CC(=O)[O-])CC1.[Gd+3] (stereo not drawn) [Gd-HP-DO3A]	12.0	0.1	–	–
CNC[C@H](O)[C@@H](O)[C@H](O)[C@H](O)CO.CNC[C@H](O)[C@@H](O)[C@H](O)[C@H](O)CO.O=C([O-])CN(CCN(CC(=O)[O-])CC(=O)O)CCN(CC(=O)[O-])CC(=O)O.[Gd+3] [(NMG)2-Gd-DTPA]	8.2	0.1	–	–
CNC[C@H](O)[C@@H](O)[C@H](O)[C@H](O)CO.O=C([O-])CN1CCN(CC(=O)[O-])CCN(CC(=O)O)CCN(CC(=O)[O-])CC1.[Gd+3] [NMG-Gd-DOTA]	11.2	0.1	–	–
O=C(O)CN(CCN(CC(=O)O)CC(=O)O)CCN(CC(=O)O)CC(=O)O [DTPA, diethylenetriaminepentaacetic acid]	–	–	Kidney	–
CNC(=O)CN(CCN(CCN(CC(=O)[O-])CC(=O)NC)CC(=O)[O-])CC(=O)[O-].[Gd+3] [Gd-DTPA-BMA]	34.4	0.1	–	–
O=C(O)CN(CCN(CC(=O)O)CC(=O)O)CCN(CC(=O)O)CC(=O)O (Gd complex, metal not drawn) [DTPA, diethylenetriaminepentaacetic acid]	–	–	–	>1
